This is an account of results in patent publication US10981932B2, “Macrocyclic indole derivatives” (Bayer Aktiengesellschaft, priority 2016, dated 2021).

Like-named read-outs stand apart in the source and are kept apart here.

The target of one data set is MCL-1 (Homo sapiens, UniProt Q07820). The data set is described as follows: Protein-protein interaction assay MCL-1/Noxa BH3 peptide (MCL-1 assay), TR-FRET. As to conditions: MBP-MCL-1 / Noxa BH3-derived peptide, median. Format: binding. As for the experimental part:
Protein-Protein Interaction Assay: MCL-1/Noxa BH3 Peptide (MCL-1 Assay) […]
In the assay 11 different concentrations of each compound (0.1 nM, 0.33 nM, 1.1 nM, 3.8 nM, 13 nM, 44 nM, 0.15 μM, 0.51 μM, 1.7 μM, 5.9 μM and 20 μM) were typically measured as duplicates in the same microtiter plate. For that, 100-fold concentrated DMSO solutions were prepared by serial dilutions (1:3.4) of a 2 mM stock solution in a clear, 384-well microtiter plate (Greiner Bio-One, Frickenhausen, Germany). From there, 50 ni were transferred in a dark test plate (Greiner Bio-One, Frickenhausen, Germany). The assay was initiated by addition of 2 μl of a 2.5-fold concentrated MBP-MCL-1 solution (usually for a 1 nM end concentration in 5 μl reaction volume) in aqueous assay buffer [50 mM Tris/HCl pH 7, 100 mM sodium chloride (NaCl), 50 mM potassium fluoride (KF), 0.005% Tween-20, 2 mM DTT, 0.1% bovine gamma globulin (BGG)] to the compounds in the assay plate. This was followed by a 10-minute incubation step at 22° C. for pre-equilibration of the putative complex between MBP-MCL-1 and the compounds. After that.
The mixture was incubated in the dark for one hour at 22° C. and then overnight at 4° C. The formation of MCL-1/Noxa complexes was determined by measuring the resonance energy transfer of the anti-MBP- Eu-cryptate antibody to the streptavidin-XL665 present in the reaction. For that purpose, the fluorescence emission at 620 nm and 665 nm after excitation at 330-350 nm was measured in a TR-FRET measuring instrument, for instance a Rubystar or a Pherastar (both from BMG Lab Technologies, Offenburg, Germany) or a Viewlux (Perkin-Elmer). The ratio of the emission at 665 nm and at 622 nm was used as indicator of the amount of MCL-1/NOXA complexes present.
The resulting data (ratio) were normalized, taking 0% inhibition as the mean value of control measurements (usually 32 data points) where all reagents were included. In this case 50 nl DMSO were used instead of compounds. A 100% inhibition corresponded to the mean value of control measurements (usually 32 data points) where all reagents except MCL-1 were included. IC50 values were determined by regression analysis based on a 4 parameter equation (minimum, maximum, IC50, Hill; Y=Max+(Min−Max)/(1+(X/IC50)^Hill) using the Screener Software (Genedata).

In data set [1] the test system is SUDHL5. The data set is described as follows: Induction of caspase-3/7 activity (Caspase-Glo 3/7), SUDHL5. As to conditions: caspase-3/7 induction, SUDHL5 cells, 3 h treatment, median. Format: cell-based. Here is the method: (§1) Induction of Caspase-317 Activity Upon Treatment of Cells with Selected Compounds
(§2) The BH3-domain of MCL-1 sequesters pro-apoptotic proteins, thereby inhibiting apoptosis. In contrast, MCL-1 inhibitors are expected to antagonize this effect leading to an increase in apoptosis, which can be determined by measuring the activity of caspase-3/7.
(§3) The activity of caspase-3/7 was determined in DLBCL (Diffuse large B-cell lymphoma) cell lines (SUDHL5 and SUDHL10) upon treatment with different compounds, using the Caspase-Glo® 3/7 reagent from Promega (G8092).
(§4) Rim wells were excluded. The cells were incubated for 3 h hours in a humidified incubator at 37° C.
(§5) For the evaluation of the results, the background measured with “medium-only” was subtracted from all other values. […] The Bella DRC Master Sheet was used to calculate EC50s, with fixed C0=1 and CI=plateaulmax induction for the reference compound.

The subject of data set [2] is SUDHL10. Nature of the data set: Induction of caspase-3/7 activity (Caspase-Glo 3/7), SUDHL10. The conditions noted are these: caspase-3/7 induction, SUDHL10 cells, 3 h treatment, median. Format: cell-based. As for the experimental part:
as §1, §2, §3, §4, §5

In data set [3] the test system is SUDHL5. Nature of the data set: Anti-proliferative effect (CellTiter-Glo, 72 h), SUDHL5. Format: cell-based. As to conditions: SUDHL5 cells, antiproliferation, 72 h incubation, median, read-out: Antiproli SUDHL5 [M] (median). As for the experimental part: (§6) Assessment of the Anti-Proliferative Effect of Compounds in Different Cell Lines
(§7) The impact of compounds on the proliferation of different cell lines was assessed using the CellTiter-Glo® Luminescent Cell Viability reagent from Promega (G7573). Of note, SUDHL10 and SUDHL5 (DLBCL), NCI-H929 (Multiple Myeloma), A2780 (ovarian carcinoma) as well as MV-4-11(AML) cells are sensitive to MCL-1 inhibition.
(§8) In parallel, cells were plated in a reference (day 0) plate for time zero determination.
(§9) Rim wells were excluded. The cells were incubated for 72 h hours in a humidified incubator at 37° C. The day 0 plate was measured by adding 30 μl/well of CTG solution (CellTiter-Glo® Luminescent Cell Viability reagent, Promega G7573) to time zero wells in the reference plate followed by a 10 minutes incubation and luminescence reading at 0.1 ms, using the PHERAstar FS microplate reader (BMG Labtech).
(§10) After 72 h incubation, the treated plates were measured in the same way as the day 0 plate mentioned above.

Data set [4] relates to SUDHL5. Nature of the data set: Induction of cytotoxicity (CellTiter-Glo, 5 h), SUDHL5. Background: In ATP-based viability assays light output follows the ATP content of the culture.
In data set [5] the test system is SUDHL10. The data set is described as follows: Induction of cytotoxicity (CellTiter-Glo, 5 h), SUDHL10.
The test system of a further data set is A2780. The data set is described as follows: Anti-proliferative effect (CellTiter-Glo, 72 h), A2780. Format: cell-based. As to conditions: A2780 cells, median, read-out: IC50 antiproliferation assay A2780 [M] (median). Here is the method: as §6, §7, §8, §9, §10
Setting [6] is: Homo sapiens, SU-DHL-5, 5 h, read-out: Cytotox SUDHL5 [M] (median), SUDHL5 cells, cytotoxicity induction, CellTiter-Glo, 5 h incubation, median.
The mark [7] stands for this setting: Homo sapiens, SU-DHL10, 5 h, read-out: Cytotox SUDHL10 [M] (median), SUDHL10 cells, cytotoxicity induction, CellTiter-Glo, 5 h incubation, median.
The mark [8] stands for this setting: read-out: Cytotox SUDHL5 [M] (median), SUDHL5 cells, cytotoxicity induction, CellTiter-Glo, 5 h incubation, median.

MCL-1, sequence (Q07820 whole entry): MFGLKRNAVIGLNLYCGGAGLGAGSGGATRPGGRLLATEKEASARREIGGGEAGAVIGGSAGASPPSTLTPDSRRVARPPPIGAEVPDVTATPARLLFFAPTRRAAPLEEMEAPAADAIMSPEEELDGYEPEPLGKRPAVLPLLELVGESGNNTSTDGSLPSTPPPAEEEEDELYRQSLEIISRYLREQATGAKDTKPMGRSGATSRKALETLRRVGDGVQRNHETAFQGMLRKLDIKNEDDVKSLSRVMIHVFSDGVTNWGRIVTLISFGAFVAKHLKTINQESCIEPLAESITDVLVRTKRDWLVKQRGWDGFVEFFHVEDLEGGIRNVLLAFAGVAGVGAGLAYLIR

Consider `Cn1nc(COc2ccc(N3CCN(C(=O)OC(C)(C)C)CC3)cc2)c2c1COCCCCn1c(C(=O)O)c(CCCOc3cccc4ccccc34)c3cccc-2c31` (racemic) [Example 1-6, (rac)-3-({4-[4-(tert-butoxycarbonyl)piperazin-1-yl]phenoxy}methyl)-1-methyl-7-[3-(naphthalen-1-yloxy)propyl]-1,10,11,12,13,15-hexahydropyrazolo[4′,3′:9,10][1,6]oxazacycloundecino[8,7,6-hi]indole-8-carboxylic Acid], for which the IC50 against MCL-1 was 0.0187 µM; in the data set on SUDHL5 [3] (Homo sapiens, SU-DHL-5, 72 h), 1.37e-06 M; in the data set with SUDHL5 [4] (setting [6]), 1.15e-05 M; with SUDHL10 [5] (setting [7]), over 3.3e-05 M. Moreover, the EC50 worked out at 7.67 µM in the data set on SUDHL5 [1] (Homo sapiens, SU-DHL-5, 3 h) and 11.9 µM with SUDHL10 [2] (Homo sapiens, SU-DHL10, 3 h).

Regarding `Cn1nc(COc2ccc(C3(O)CCOCC3)cc2)c2c1COCCCCn1c(C(=O)O)c(CCCOc3cccc4ccccc34)c3cccc-2c31` (racemic) [Example 1-61, (rac)-3-{[4-(4-hydroxytetrahydro-2H-pyran-4-yl)phenoxy]methyl}-1-methyl-7-[3-(naphthalen-1-yloxy)propyl]-1,10,11,12,13,15-hexahydropyrazolo[4′,3′:9,10][1,6]oxazacycloundecino[8,7,6-hi]indole-8-carboxylic Acid], the IC50 against MCL-1 was determined as 0.00293 µM; in the data set on SUDHL5 [3] (Homo sapiens, SU-DHL-5, 72 h) it was 5.41e-06 M; in the data set with SUDHL5 [4] (setting [6]) it was 1.33e-05 M; in the data set on SUDHL10 [5] (setting [7]) it was 2.11e-05 M. In addition, the EC50 came to 6.16 µM in the data set with SUDHL5 [1] (Homo sapiens, SU-DHL-5, 3 h) and 10.7 µM with SUDHL10 [2] (Homo sapiens, SU-DHL10, 3 h).

For `COC1(c2ccc(OCc3nn(C)c4c3-c3cccc5c(CCCOc6cccc7ccccc67)c(C(=O)O)n(c35)CCCCOC4)cc2)CCOCC1` (racemic) [Example 1-65, (rac)-3-{[4-(4-methoxytetrahydro-2H-pyran-4-yl)phenoxy]methyl}-1-methyl-7-[3-(naphthalen-1-yloxy)propyl]-1,10,11,12,13,15-hexahydropyrazolo[4′,3′:9,10][1,6]oxazacycloundecino[8,7,6-hi]indole-8-carboxylic Acid], the IC50 is 0.031 µM against MCL-1; 3.71e-06 M with SUDHL5 [3] (Homo sapiens, SU-DHL-5, 72 h); over 3.3e-05 M with SUDHL5 [4] (setting [6]); 3.13e-05 M in the data set with SUDHL10 [5] (setting [7]). The EC50 in the data set on SUDHL5 [1] (Homo sapiens, SU-DHL-5, 3 h) came to 16.3 µM; in the data set on SUDHL10 [2] (Homo sapiens, SU-DHL10, 3 h) it was 17.5 µM.

As for `Cn1nc(CO)c2c1COCCCCn1c(C(=O)O)c(CCCOc3cccc4ccccc34)c3cccc-2c31` (racemic) [Example 1-95, (rac)-3-(hydroxymethyl)-1-methyl-7-[3-(naphthalen-1-yloxy)propyl]-1,10,11,12,13,15-hexahydropyrazolo[4′,3′:9,10][1,6]oxazacycloundecino[8,7,6-hi]indole-8-carboxylic Acid], the IC50 on MCL-1 is 0.0039 µM; in the data set on SUDHL5 [3] (Homo sapiens, SU-DHL-5, 72 h), 4.8e-06 M; in the data set with SUDHL5 [4] (setting [6]) it was 1.98e-05 M; in the data set with SUDHL10 [5] (setting [7]) it was over 3.3e-05 M. In addition, the EC50 is 10.8 µM in the data set on SUDHL5 [1] (Homo sapiens, SU-DHL-5, 3 h) and 22.7 µM with SUDHL10 [2] (Homo sapiens, SU-DHL10, 3 h).

As to `Cc1c2c(nn1CC(F)(F)F)COC/C=C\Cn1c(C(=O)O)c(CCCOc3cccc4ccccc34)c3cccc-2c31` (racemic) [Example 091, (rac)-(11Z)-3-methyl-7-[3-(naphthalen-1-yloxy)propyl]-2-(2,2,2-trifluoroethyl)-2,10,13,15-tetrahydropyrazolo[4′,3′:9,10][1,6]oxazacycloundecino[8,7,6-hi]indole-8-carboxylic Acid], the IC50 amounted to 0.0202 µM against MCL-1; 6.92e-06 M in the data set on SUDHL5 [3] (Homo sapiens, SU-DHL-5, 72 h); 7.1e-06 M in the data set with A2780 (Homo sapiens, A2780, 72 h); 1.48e-05 M in the data set on SUDHL5 [4] (setting [6]); 1.89e-05 M with SUDHL10 [5] (setting [7]). Besides, the EC50 with SUDHL5 [1] (Homo sapiens, SU-DHL-5, 3 h) was 23.5 µM; in the data set on SUDHL10 [2] (Homo sapiens, SU-DHL10, 3 h) it was 31.8 µM.

Regarding `COCCn1nc(C2CC2)c2c1COCCCCn1c(C(=O)O)c(CCCOc3cccc4ccccc34)c3cccc-2c31` (racemic) [Example 102, (rac)-3-Cyclopropyl-1-(2-methoxyethyl)-7-[3-(naphthalen-1-yloxy)propyl]-1,10,11,12,13,15-hexahydropyrazolo[4′,3′:9,10][1,6]oxazacycloundecino[8,7,6-hi]indole-8-carboxylic Acid], the IC50 at MCL-1 is 0.00682 µM; in the data set on SUDHL5 [3] (Homo sapiens, SU-DHL-5, 72 h), 1.32e-05 M; in the data set with A2780 (Homo sapiens, A2780, 72 h) it was over 3.3e-05 M; in the data set on SUDHL5 [4] (setting [6]), 6.12e-06 M; in the data set with SUDHL10 [5] (setting [7]), over 3.3e-05 M. Also, the EC50 in the data set on SUDHL5 [1] (Homo sapiens, SU-DHL-5, 3 h) is 8.26 µM; in the data set on SUDHL10 [2] (Homo sapiens, SU-DHL10, 3 h), over 33 µM.

On to `Cn1nc(COC2CC2)c2c1COCCCCn1c(C(=O)O)c(CCCOc3cccc4ccccc34)c3cccc-2c31` (single isomer, unassigned) [Example 214, 3-[(cyclopropyloxy)methyl]-1-methyl-7-[3-(naphthalen-1-yloxy)propyl]-1,10,11,12,13,15-hexahydropyrazolo[4′,3′:9,10][1,6]oxazacycloundecino[8,7,6-hi]indole-8-carboxylic Acid], for which the IC50 against MCL-1 is 0.00524 µM; with SUDHL5 [3] (Homo sapiens, SU-DHL-5, 72 h) it was 9.08e-06 M; in the data set on A2780 it was over 3.3e-05 M; with A2780 (Homo sapiens, A2780, 72 h) it was 2.9e-05 M; in the data set with SUDHL5 [4] (setting [8]), 1.14e-05 M. Besides, the EC50 was 14.9 µM in the data set on SUDHL5 [1]; 20.7 µM in the data set on SUDHL10 [2] (Homo sapiens, SU-DHL10, 3 h); over 33 µM with SUDHL10 [2].

Regarding `CN(C)S(=O)(=O)N1CCN(c2ccc(OCc3nn(C)c4c3-c3cccc5c(CCCOc6cccc7ccccc67)c(C(=O)O)n(c35)CCCCOC4)cc2)CC1` (single isomer, unassigned; enantiomer 1) [Example 1-19, 3-({4-[4-(dimethylsulfamoyl)piperazin-1-yl]phenoxy}methyl)-1-methyl-7-[3-(naphthalen-1-yloxy)propyl]-1,10,11,12,13,15-hexahydropyrazolo[4′,3′:9,10][1,6]oxazacycloundecino[8,7,6-hi]indole-8-Carboxylic acid (Enantiomer 1)], the IC50 on MCL-1 was 0.0527 µM; in the data set on SUDHL5 [3], 5.87e-06 M; with SUDHL5 [4] (setting [8]), 2.7e-05 M; with SUDHL10 [5] (read-out: Cytotox SUDHL10 [M] (median), SUDHL10 cells, cytotoxicity induction, CellTiter-Glo, 5 h incubation, median) it was 2.52e-05 M. Further, the EC50 was 17.2 µM in the data set on SUDHL5 [1] and 20.6 µM with SUDHL10 [2].

For orientation: EC50 means the concentration giving half of the maximal effect. Low values mean greater potency, high ones weaker potency.
